Reference: US9179674B2, “Macrocyclic picolinamide compounds with fungicidal activity” (DOW AGROSCIENCES LLC, priority 2013, dated 2015)

Key:
Format in all cases: in vivo
Cercospora beticola = assay: Leaf Spot of Sugar Beets fungicidal activity (CERCBE); details: 24 h, 1 Day Protectant, sugar beet, read-out: Disease Control CERCBE 1DP
Protocol: Technical grades of materials were dissolved in acetone, which were then mixed with nine volumes of water containing 110 ppm Triton X-100. The fungicide solutions were applied onto wheat seedlings using an automated booth sprayer to run-off. All sprayed plants were allowed to air dry prior to further handling. All fungicides were evaluated using the aforementioned method for their activity vs. all target diseases. Wheat leaf blotch and brown rust activity were also evaluated using track spray applications, in which case the fungicides were formulated as EC formulations, containing 0.1% Trycol 5941 in the spray solutions. Wheat plants (variety Yuma) were grown from seed in a greenhouse in 50% mineral soil/50% soil-less Metro mix until the first leaf was fully emerged, with 7-10 seedlings per pot. These plants were inoculated with an aqueous spore suspension of Septoria tritici either prior to or after fungicide treatments. After inoculation the plants were kept in 100% relative humidity (one day in a dark dew chamber followed by two to three days in a lighted dew chamber at 20° C.) to permit spores to germinate and infect the leaf. The plants were then transferred to a greenhouse set at 20° C. for disease to develop. When disease symptoms were fully expressed on the 1st leaves of untreated plants, infection levels were assessed on a scale of 0 to 100 percent disease severity. Percent disease control was calculated using the ratio of disease severity on treated plants relative to untreated plants. Evaluation of Fungicidal Activity: Leaf Spot of Sugar Beets (Cercospora beticola; Bayer Code CERCBE) Sugar beet plants (variety HH88) were grown in soil-less Metro mix and trimmed regularly to maintain a uniform plant size prior to test. Plants were inoculated with a spore suspension 24 hr after fungicide treatments. Inoculated plants were kept in a dew chamber at 22° C. for 48 hr then incubated in a greenhouse set at 24° C. under a clear plastic hood with bottom ventilation until disease symptoms were fully expressed. Fungicide formulation, application and disease assessment on the sprayed leaves followed the procedures as described in the Example A.

Alternaria solani = assay: Tomato Early Blight fungicidal activity (ALTESO); details: 24 h, 1 Day Protectant, read-out: Disease Control ALTESO 1DP
Protocol: Technical grades of materials were dissolved in acetone, which were then mixed with nine volumes of water containing 110 ppm Triton X-100. The fungicide solutions were applied onto wheat seedlings using an automated booth sprayer to run-off. All sprayed plants were allowed to air dry prior to further handling. All fungicides were evaluated using the aforementioned method for their activity vs. all target diseases. Wheat leaf blotch and brown rust activity were also evaluated using track spray applications, in which case the fungicides were formulated as EC formulations, containing 0.1% Trycol 5941 in the spray solutions. Wheat plants (variety Yuma) were grown from seed in a greenhouse in 50% mineral soil/50% soil-less Metro mix until the first leaf was fully emerged, with 7-10 seedlings per pot. These plants were inoculated with an aqueous spore suspension of Septoria tritici either prior to or after fungicide treatments. After inoculation the plants were kept in 100% relative humidity (one day in a dark dew chamber followed by two to three days in a lighted dew chamber at 20° C.) to permit spores to germinate and infect the leaf. The plants were then transferred to a greenhouse set at 20° C. for disease to develop. When disease symptoms were fully expressed on the 1st leaves of untreated plants, infection levels were assessed on a scale of 0 to 100 percent disease severity. Percent disease control was calculated using the ratio of disease severity on treated plants relative to untreated plants. Evaluation of Fungicidal Activity: Tomato Early Blight (Alternaria solani; Bayer Code […]) Tomato plants (variety Outdoor girl) were propagated in soil-less Metro mix, with each pot having one plant, and used when 12 to 14 days old. Test plants were inoculated with an aqueous spore suspension of Alternaria solani 24 hr after fungicide treatments. After inoculation the plants were kept in 100% relative humidity (one day in a dark dew chamber followed by two to three days in a lighted dew chamber at 20° C.) to permit spores to germinate and infect the leaf. The plants were then transferred to a growth room at 22° C. for disease to develop. Fungicide formulation, application and disease assessment on the sprayed leaves followed the procedures as described in the Example A.

Venturia inaequalis = assay: Apple Scab fungicidal activity (VENTIN); details: 100 ppm, 1 Day Protectant
Protocol: Technical grades of materials were dissolved in acetone, which were then mixed with nine volumes of water containing 110 ppm Triton X-100. The fungicide solutions were applied onto wheat seedlings using an automated booth sprayer to run-off. All sprayed plants were allowed to air dry prior to further handling. All fungicides were evaluated using the aforementioned method for their activity vs. all target diseases. Wheat leaf blotch and brown rust activity were also evaluated using track spray applications, in which case the fungicides were formulated as EC formulations, containing 0.1% Trycol 5941 in the spray solutions. Wheat plants (variety Yuma) were grown from seed in a greenhouse in 50% mineral soil/50% soil-less Metro mix until the first leaf was fully emerged, with 7-10 seedlings per pot. These plants were inoculated with an aqueous spore suspension of Septoria tritici either prior to or after fungicide treatments. After inoculation the plants were kept in 100% relative humidity (one day in a dark dew chamber followed by two to three days in a lighted dew chamber at 20° C.) to permit spores to germinate and infect the leaf. The plants were then transferred to a greenhouse set at 20° C. for disease to develop. When disease symptoms were fully expressed on the 1st leaves of untreated plants, infection levels were assessed on a scale of 0 to 100 percent disease severity. Percent disease control was calculated using the ratio of disease severity on treated plants relative to untreated plants. Evaluation of Fungicidal Activity: Apple Scab (Venturia inaequalis; Bayer code […]) Apple seedlings (variety McIntosh) were grown in soil-less Metro mix, with one plant per pot. Seedlings with two expanding young leaves at the top (older leaves at bottom of the plants were trimmed) were used in the test. Plants were inoculated with a spore suspension of Venturia inaequalis 24 hr after fungicide treatment and kept in a 22° C. dew chamber with 100% RH for 48 hr, and then moved to a greenhouse set at 20° C. for disease to develop. Fungicide formulation, application and disease assessment on the sprayed leaves followed the procedures as described in the Example A.

SMILES	pest or weed control at 100 ppm (Cercospora beticola)	pest or weed control at 100 ppm (Alternaria solani)	Disease Control VENTIN 1DP (Venturia inaequalis)
COc1ccnc(C(=O)N[C@H]2COC[C@H](Cc3ccc(F)cc3)[C@@H](OCC(C)C)[C@H](C)OC2=O)c1OC(C)=O [Compound F60]	80 to 100%	–	–
COc1ccnc(C(=O)N[C@H]2COC[C@H](Cc3ccc(Cl)cc3Cl)[C@@H](OC(=O)C(C)C)[C@H](C)OC2=O)c1OC(C)=O [Compound F73]	80 to 100%	0 to 80%	–
COc1ccnc(C(=O)N[C@H]2COC[C@H](Cc3ccc(C)cc3)[C@@H](OCC(C)C)[C@H](C)OC2=O)c1OC(C)=O [Compound F80]	80 to 100%	80 to 100%	B (More than 0-Less than 80)
COc1ccnc(C(=O)N[C@H]2COC[C@H](CCc3ccccc3)[C@@H](OCC(C)C)[C@H](C)OC2=O)c1OCOC(C)=O [Compound F82]	0 to 80%	0 to 80%	–
COc1ccnc(C(=O)N[C@H]2COC[C@H](Cc3cccc4ccccc34)[C@@H](OC(=O)C(C)C)[C@H](C)OC2=O)c1OCOC(C)=O [Compound F83, (3S,6S,7R,8S)-3-(3-(acetoxymethoxy)-4-methoxypicolin-amido)-6-methyl-8-(naphthalen-1-ylmethyl)-4-oxo-1,5-dioxonan-7-yl isobutyrate]	80 to 100%	–	A (80-100)
COc1ccnc(C(=O)N[C@H]2COC[C@H](Cc3ccc(F)cc3)[C@@H](OCC(C)C)[C@H](C)OC2=O)c1OCOC(C)=O [Compound F96]	80 to 100%	80 to 100%	–
COc1ccnc(C(=O)N[C@H]2COC[C@H](CC(F)(F)F)[C@@H](OC3CCCC3)[C@H](C)OC2=O)c1OCOC(C)=O [Compound F105]	80 to 100%	0 to 80%	–
COc1ccnc(C(=O)N[C@H]2COC[C@H](CCC(C)C)[C@@H](OCCCC(F)(F)F)[C@H](C)OC2=O)c1OCOC(C)=O [Compound F107]	80 to 100%	80 to 100%	–
COc1ccnc(C(=O)N[C@H]2COC[C@H](CCC(C)C)[C@@H](OC(=O)C3CC3)[C@H](C)OC2=O)c1OCOC(C)=O [Compound F108]	80 to 100%	80 to 100%	–
COc1ccnc(C(=O)N[C@H]2COC[C@H](Cc3ccc(Cl)cc3Cl)[C@@H](OC(=O)C(C)C)[C@H](C)OC2=O)c1OCOC(C)=O [Compound F110]	80 to 100%	80 to 100%	–
COc1ccnc(C(=O)N[C@H]2COC[C@H](CC3CCCC3)[C@@H](OC(=O)C(C)C)[C@H](C)OC2=O)c1OCOC(C)=O [Compound F114]	80 to 100%	80 to 100%	A (80-100)
COc1ccnc(C(=O)N[C@H]2COC[C@H](Cc3ccc(C)cc3)[C@@H](OCC(C)C)[C@H](C)OC2=O)c1OCOC(C)=O [Compound F117]	80 to 100%	80 to 100%	A (80-100)
CCCCCO[C@@H]1[C@@H](Cc2ccc(Cl)cc2Cl)COC[C@H](NC(=O)c2nccc(OC)c2OCOC(=O)COCC)C(=O)O[C@H]1C [Compound F122]	80 to 100%	80 to 100%	A (80-100)
CCCCCO[C@@H]1[C@@H](Cc2ccc(Cl)cc2Cl)COC[C@H](NC(=O)c2nccc(OC)c2OC(=O)CCOC)C(=O)O[C@H]1C [Compound F123]	80 to 100%	80 to 100%	B (More than 0-Less than 80)
